Columns and labels:
[1] = molecular target: T1, furin (endogenous protease) in U20S cells (Homo sapiens, UniProt P09958); assay: Furin cell-based assay (image-based, Golgi-targeted GFP with BMP10 furin/PCSK cleavage site); settings: 24-hour incubation, read-out: furin golgi cell pXC50 (converted);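 note: Read-out is mean GFP fluorescence of Golgi puncta per cell by high-content imaging, retained when furin inhibited, over an eleven-point 0.00017–10 µM series, four-parameter fit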
T1 construct: the endogenous protease cleaves GFP; endogenous in cells; host or cells: U2OS cells transduced with a BacMam reporter
T1 sequence (P09958 108-794): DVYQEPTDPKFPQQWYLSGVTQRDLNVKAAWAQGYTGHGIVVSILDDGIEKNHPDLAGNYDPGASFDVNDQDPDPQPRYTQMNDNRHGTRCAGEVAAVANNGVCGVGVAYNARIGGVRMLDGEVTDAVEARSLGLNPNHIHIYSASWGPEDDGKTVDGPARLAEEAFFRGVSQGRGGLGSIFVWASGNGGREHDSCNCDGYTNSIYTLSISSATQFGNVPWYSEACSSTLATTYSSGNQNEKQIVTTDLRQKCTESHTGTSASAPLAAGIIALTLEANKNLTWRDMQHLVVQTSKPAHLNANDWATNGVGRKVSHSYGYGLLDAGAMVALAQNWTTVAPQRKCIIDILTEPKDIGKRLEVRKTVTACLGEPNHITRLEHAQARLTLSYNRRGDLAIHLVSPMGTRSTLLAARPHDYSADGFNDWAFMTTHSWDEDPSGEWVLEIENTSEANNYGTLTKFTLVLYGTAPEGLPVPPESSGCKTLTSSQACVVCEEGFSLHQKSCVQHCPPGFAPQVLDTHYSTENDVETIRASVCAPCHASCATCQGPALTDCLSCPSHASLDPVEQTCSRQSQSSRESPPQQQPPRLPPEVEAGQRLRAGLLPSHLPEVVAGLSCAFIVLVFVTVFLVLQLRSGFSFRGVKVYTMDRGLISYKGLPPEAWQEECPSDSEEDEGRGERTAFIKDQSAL

[2] = molecular target: T2, Furin (108-574-Tev-Flag-His) enzyme (Homo sapiens, UniProt P09958); assay: Furin enzyme assay; assay type: biochemical
T2 construct: Furin (108-574-Tev-Flag-His) enzyme was expressed and purified from CHO cells; TEV cleavage site (C); FLAG (C); His (C); made in house; host or cells: CHO cells
T2 sequence (P09958 108-574): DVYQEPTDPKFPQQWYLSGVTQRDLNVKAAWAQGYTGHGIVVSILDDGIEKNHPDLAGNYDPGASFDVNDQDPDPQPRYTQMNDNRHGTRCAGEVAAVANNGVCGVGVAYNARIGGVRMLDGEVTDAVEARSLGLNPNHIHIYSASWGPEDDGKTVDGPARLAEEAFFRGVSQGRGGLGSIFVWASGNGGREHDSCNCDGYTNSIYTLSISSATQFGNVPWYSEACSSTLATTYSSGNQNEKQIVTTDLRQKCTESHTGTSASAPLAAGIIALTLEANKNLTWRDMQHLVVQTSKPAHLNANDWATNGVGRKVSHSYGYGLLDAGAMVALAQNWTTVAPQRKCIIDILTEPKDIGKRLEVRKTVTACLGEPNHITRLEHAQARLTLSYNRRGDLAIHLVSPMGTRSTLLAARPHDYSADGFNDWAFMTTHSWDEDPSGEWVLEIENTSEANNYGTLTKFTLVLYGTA
Outline: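 CHO-expressed, purified furin construct at 40 pM in 100 mM HEPES pH7.5, 1 mM CaCl2, 0.005% Triton X-100. Eleven-point 1:3 series, 0.00017–10 μM final, incubated 2 h at room temperature and read on Envision. pXC50 from four-parameter fit.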

Structure (SMILES) | EC50 [1] [µM] | furin enzyme pIC50 [2] | IC50 ([2]; read-out: furin enzyme pIC50 (converted)) [µM]
CNC(=O)NCC1CCN(Cc2cc(Oc3cnc(N4CCN(CC(C)C(=O)O)CC4)nc3)cc(-c3cc(Cl)cc(Cl)c3)c2)CC1 (stereo not shown) [Example 292, 3-(4-(5-((3′,5′-dichloro-5-((4-((3-methylureido)methyl)piperidin-1-yl)methyl)-[1,1′-biphenyl]-3-yl)oxy)pyrimidin-2-yl)piperazin-1-yl)-2-methylpropanoic acid] | 0.0501 | 9.4 | –
CC(=O)NCC1CCN(Cc2cc(Oc3ccc(N4CCN(CCS(C)(=O)=O)CC4)nc3)cc(-c3cc(Cl)cc(Cl)c3)c2)CC1 [Example 293, N-((1-((3′,5′-dichloro-5-((6-(4-(2-(methylsulfonyl)ethyl)piper-1-yl)pyridin-3-yl)oxy)-[1,1′-biphenyl]-3-yl)methyl)piperidin-4-yl)methyl)acetamide] | 0.158 | 8.2 | –
COC(=O)NCC1CCN(Cc2cc(Oc3cnc(N4CCN(CCC(=O)O)[C@@H](C)C4)nc3)nc(-c3cc(Cl)cc(Cl)c3)c2)CC1 [Example 294, (S)-3-(4-(5-((6-(3,5-dichlorophenyl)-4-((4-(((methoxycarbonyl)amino)methyl)piperidin-1-yl)methyl)pyridin-2-yl)oxy)pyrimidin-2-yl)-2-methylpiperazin-1-yl)propanoic acid] | 0.02 | 10.1 | –
CNC(=O)NCC1CCN(Cc2cc(Oc3cnc(N4CCN(CCC(C)O)CC4)nc3)nc(-c3cc(Cl)cc(Cl)c3)c2)CC1 (stereo not shown) [Example 295, 1-((1-((2-(3,5-dichlorophenyl)-6-((2-(4-(3-hydroxybutyl)piperazin-1-yl)pyrimidin-5-yl)oxy)pyridin-4-yl)methyl)piperidin-4-yl)methyl)-3-methylurea] | 0.000794 | 9.5 | –
CC(=O)NCC1CCN(Cc2cc(Oc3cnc(N4CC5CCC(C4)N5CCC(=O)O)nc3)nc(-c3cc(Cl)cc(Cl)c3)c2)CC1 [Example 296, 3-(3-(5-((4-((4-(acetamidomethyl)piperidin-1-yl)methyl)-6-(3,5-dichlorophenyl)pyridin-2-yl)oxy)pyrimidin-2-yl)-3,8-diazabicyclo[3.2.1]octan-8-yl)propanoic acid] | 0.01 | 10.6 | –
COC(=O)CCN1CCN(c2ncc(Oc3cc(CN4CCC(CNC(C)=O)CC4)cc(-c4cc(Cl)cc(Cl)c4)n3)cn2)CC1 [Example 297, methyl 3-(4-(5-((4-((4-(acetamidomethyl)piperidin-1-yl)methyl)-6-(3,5-dichlorophenyl)pyridin-2-yl)oxy)pyrimidin-2-yl)piperazin-1-yl)propanoate] | 0.00501 | 9.4 | –
C[C@@H](O)CN1CCN(c2ccc(Oc3cc(CN4CCC(CC(=O)O)CC4)cc(-c4cc(Cl)cc(Cl)c4)n3)cn2)CC1 [Example 299, (R)-2-(1-((2-(3,5-dichlorophenyl)-6-((6-(4-(2-hydroxypropyl)piperazin-1-yl)pyridin-3-yl)oxy)pyridin-4-yl)methyl)piperidin-4-yl)acetic acid] | 0.0316 | 8.5 | –
O=C(O)CC1CCN(Cc2cc(Oc3ccc(N4CCN(CCO)CC4)nc3)nc(-c3cc(Cl)cc(Cl)c3)c2)CC1 [Example 300, 2-(1-((2-(3,5-dichlorophenyl)-6-((6-(4-(2-hydroxyethyl)piperazin-1-yl)pyridin-3-yl)oxy)pyridin-4-yl)methyl)piperidin-4-yl)acetic acid] | 0.02 | 9.1 | –
CC(CC1CCN(Cc2cc(Oc3cnc(N4CCN(C[C@@H](C)O)CC4)nc3)nc(-c3cc(Cl)cc(Cl)c3)c2)CC1)C(=O)O (stereo partly drawn) [Example 301, 3-(1-((2-(3,5-dichlorophenyl)-6-((2-(4-((R)-2-hydroxypropyl)piperazin-1-yl)pyrimidin-5-yl)oxy)pyridin-4-yl)methyl)piperidin-4-yl)-2-methylpropanoic acid] | 0.0398 | 9.6 | –
CC(=O)NCC1CCN(Cc2cc(Oc3cnc(N4CCN(C[C@@H](C)O)CC4)nc3)nc(-c3cc(Cl)cc(Cl)c3)c2)CC1 [Example 302] | 0.00794 | 9.6 | –
CC(=O)NCC1CCN(Cc2cc(Oc3cnc(N4CCN(CC(C)(C)O)CC4)nc3)nc(-c3cc(Cl)cc(Cl)c3)c2)CC1 [Example 303, N-((1-((2-(3,5-dichlorophenyl)-6-((2-(4-(2-hydroxy-2-methylpropyl)piperazin-1-yl)pyrimidin-5-yl)oxy)pyridin-4-yl)methyl)piperidin-4-yl)methyl)acetamide] | 0.00251 | 9.2 | –
CC(=O)NCC1CCN(Cc2cc(Oc3cnc(N4CCN(CC(O)CF)CC4)nc3)nc(-c3cc(Cl)cc(Cl)c3)c2)CC1 (stereo not shown) [Example 304, N-((1-((2-(3,5-dichlorophenyl)-6-((2-(4-(3-fluoro-2-hydroxypropyl)piperazin-1-yl)pyrimidin-5-yl)oxy)pyridin-4-yl)methyl)piperidin-4-yl)methyl)acetamide] | 0.00251 | 8.8 | –
CNC(=O)OCC1CCN(Cc2cc(Oc3ccc(N4CCN(C[C@@H](C)O)CC4)nc3)nc(-c3cc(Cl)cc(Cl)c3)c2)CC1 [Example 305, (R)-(1-((2-(3,5-dichlorophenyl)-6-((6-(4-(2-hydroxypropyl)piperazin-1-yl)pyridin-3-yl)oxy)pyridin-4-yl)methyl)piperidin-4-yl)methyl methylcarbamate] | 0.01 | 8.7 | –
CNC(=O)OCC1CCN(Cc2cc(Oc3cnc(N4CCN(CCO)CC4)nc3)nc(-c3cc(Cl)cc(Cl)c3)c2)CC1 [Example 307, (1-((2-(3,5-dichlorophenyl)-6-((2-(4-(2-hydroxyethyl)piperazin-1-yl)pyrimidin-5-yl)oxy)pyridin-4-yl)methyl)piperidin-4-yl)methyl methylcarbamate] | 0.002 | 9.4 | –
CNC(=O)OCC1CCN(Cc2cc(Oc3cnc(N4CCN(C[C@@H](C)O)CC4)nc3)nc(-c3cc(Cl)cc(Cl)c3)c2)CC1 [Example 308, (R)-(1-((2-(3,5-dichlorophenyl)-6-((2-(4-(2-hydroxypropyl)piperazin-1-yl)pyrimidin-5-yl)oxy)pyridin-4-yl)methyl)piperidin-4-yl)methyl methylcarbamate] | 0.0126 | 9.3 | –
CNC(=O)NCC1CCN(Cc2cc(Oc3ccc(N4CCN(C[C@@H](C)O)CC4)nc3)nc(-c3cc(Cl)cc(Cl)c3)c2)CC1 [Example 309, (R)-1-((1-((2-(3,5-dichlorophenyl)-6-((6-(4-(2-hydroxypropyl)piperazin-1-yl)pyridin-3-yl)oxy)pyridin-4-yl)methyl)piperidin-4-yl)methyl)-3-methylurea] | 0.00251 | 9.8 | –
CNC(=O)NCC1CCN(Cc2cc(Oc3cnc(N4CCN(C[C@@H](C)O)CC4)nc3)nc(-c3cc(Cl)cc(Cl)c3)c2)CC1 [Example 310, (R)-1-((1-((2-(3,5-dichlorophenyl)-6-((2-(4-(2-hydroxypropyl)piperazin-1-yl)pyrimidin-5-yl)oxy)pyridin-4-yl)methyl)piperidin-4-yl)methyl)-3-methylurea] | 0.00398 | 9.6 | –
COC(=O)NCC1CCN(Cc2cc(Oc3cnc(N4CCN(CCO)CC4)nc3)nc(-c3cc(Cl)cc(Cl)c3)c2)CC1 [Example 311, methyl ((1-((2-(3,5-dichlorophenyl)-6-((2-(4-(2-hydroxyethyl)piperazin-1-yl)pyrimidin-5-yl)oxy)pyridin-4-yl)methyl)piperidin-4-yl)methyl)carbamate] | 0.0158 | 8.9 | –
COC(=O)NCC1CCN(Cc2cc(Oc3cnc(N4CCN(C[C@@H](C)O)CC4)nc3)nc(-c3cc(Cl)cc(Cl)c3)c2)CC1 [Example 312, (R)-methyl ((1-((2-(3,5-dichlorophenyl)-6-((2-(4-(2-hydroxypropyl)piperazin-1-yl)pyrimidin-5-yl)oxy)pyridin-4-yl)methyl)piperidin-4-yl)methyl)carbamate] | 0.0158 | 9.7 | –
CNC(=O)NCC1CCN(Cc2cc(Oc3cnc(N4CCN(CCO)CC4)nc3)cc(-c3cc(Cl)cc(Cl)c3)c2)CC1 [Example 313, 1-((1-((3′,5′-dichloro-5-((2-(4-(2-hydroxyethyl)piperazin-1-yl)pyrimidin-5-yl)oxy)-[1,1′-biphenyl]-3-yl)methyl)piperidin-4-yl)methyl)-3-methylurea] | 0.0158 | – | < 0.000158
O=C(O)CCC1CCN(Cc2cc(Oc3ccc(N4CCN(CCO)CC4)nc3)nc(-c3cc(Cl)cc(Cl)c3)c2)CC1 [Example 314, 3-(1-((2-(3,5-dichlorophenyl)-6-((6-(4-(2-hydroxyethyl)piperazin-1-yl)pyridin-3-yl)oxy)pyridin-4-yl)methyl)piperidin-4-yl)propanoic acid] | 0.0316 | 8.9 | –
CC(=O)NCC1CCN(Cc2cc(Oc3cnc(N4CCN(CCO)CC4)nc3)nc(-c3cc(F)cc(Cl)c3)c2)CC1 [Example 315, N-((1-((2-(3-chloro-5-fluorophenyl)-6-((2-(4-(2-hydroxyethyl)piperazin-1-yl)pyrimidin-5-yl)oxy)pyridin-4-yl)methyl)piperidin-4-yl)methyl)acetamide] | 0.0158 | 9.2 | –
CC(=O)NCC1CCN(Cc2cc(Oc3cnc(N4CCN(CC(O)C(=O)O)CC4)nc3)nc(-c3cc(Cl)cc(Cl)c3)c2)CC1 (stereo not shown) [Example 316, 3-(4-(5-((4-((4-(acetamidomethyl)piperidin-1-yl)methyl)-6-(3,5-dichlorophenyl)pyridin-2-yl)oxy)pyrimidin-2-yl)piperazin-1-yl)-2-hydroxypropanoic acid] | 0.1 | 10.2 | –

Reference: US11773078B2, “Furin inhibitors” (Glaxosmithkline Intellectual Property Development Limited, priority 2018, dated 2023)
